# From patent US20250114313A1, “OLIGO-BENZAMIDE ANALOGS AND THEIR USE IN CANCER TREATMENT” (BOARD OF REGENTS, THE UNIVERSITY OF TEXAS SYSTEM, priority 2022, published 2025)
# Entries after “also recorded” stand apart in the source; their conditions may differ.
# Legend:
# [1] = test system: SUM-159 cells with LIPA-KO reconstituted with LIPA constructs; assay: Response of SUM-159 LIPA KO cells reconstituted with LIPA constructs (CellTiter-Glo, western, RT-qPCR); format: cell-based, Human
# Protocol: (§1) Cell viability assays: Cells were seeded in 96-well plates (2×10^3 cells/well) one day before the treatment. Cells were treated with varying concentrations of ERX-41 or ERX-11 analogs for 3-6 days. Then effects of ERX-41 or ERX-11 analogs on cell viability were measured in triplicate or sextuplicate with multiple biological replicates using the WST-1 (Promega), MTT as previously described^33 or CellTiter-Glo 2.0 (Promega) assays.
# (§2) Lentiviral constructs cloning: LentiCRISPRv2 vector was used for CRSPR KO experiments. sgRNAs, which were chosen from human CRISPR knockout pooled library, were cloned into lentiCRISPRv2 vector^34. Human LIPA cDNA (GenBank: BC012287) or mouse LIPA cDNA (NM_021460) were clone into pWPI for over expression experiments. For TurboID experiment, the LIPA-TurboID sequence was cloned into pCW57-MCS1-2A-MCS2 vector. LentiCRISPR v2 was purchased from Addgene (Addgene #52961; //n2t.net/addgene:52961; RRID:Addgene_52961) (via Feng Zhang). pWPI was purchased from Addgene (Addgene #12254; //n2t.net/addgene:12254; RRID:Addgene_12254) (via Didier Trono). pCW57-MCS1-2A-MCS2 was purchased from Addgene (#71782) (via Adam Karpf). Human LIPA gene is referred as LIPA, while mouse LIPA gene is referred as mLIPA in this disclosure. Since LIPA overexpression was introduced in LIPA CRISPR KO background, to avoid being targeted by CRISPR-cas9, the LIPA sgRNA target sequence including PAM, tt aac cga att cct cat ggg agg, was mutated to tt aac cga att cct caC ggA agA in all of the LIPA overexpression constructs without protein coding change. In-Fusion Cloning kit (Takara) was used to generate different mutants of LIPA.
# (§3) Western blotting: Whole cell lysates from breast cancer cells were prepared with 2× sample buffer (60 mM Tris-HCl, pH 6.8, 2% sodium dodecyl sulfate, 10% glycerol), and before loading mixed with loading buffer (5% 2-mercaptoethanol, 0.1% bromophenol blue) and boiled for denaturation, as previously described.^33 Proteins were separated by SDS-PAGE and subjected to Western analysis using antibodies. To detect nascent translated proteins, puromycin (final concentration 10 μg/mL) was added into cell plates 30 minutes before harvesting cells. Then samples were subjected to the Western blotting. Nascent proteins were detected by anti-puromycin antibody.
# Real-time quantitative PCR (RT-qPCR): Total RNA was prepared from breast cancer cells using the RNeasy Mini Kit (Qiagen) according to the manufacturer protocols. Subsequently, total RNAs were reverse transcribed into cDNA using iScript Reverse Transcription Supermix (Bio-rad) and by using SYBR Green on an Illumina Real-Time PCR system.
# TNBC cells (MDA-MB-231) = assay: Transmission electron microscopy of ER; format: cell-based, Human; settings: 1 μM, within 4 h
# Protocol: Transmission Electron Microscopy: DMSO or ERX-41 treated cells were fixed with 2.5% glutaraldehyde (Electron Microscopy Sciences) in 0.1 M sodium cacodylate pH7.4 buffer (Electron Microscopy Sciences) for 20 min at room temperature. After rinsing with 0.1 M sodium cacodylate pH7.4 buffer, cells were further fixed with 1% Osmium with 0.8% K3Fe(CN6) in 0.1 M sodium cacodylate pH7.4 buffer. After pre-staining with 4% uranyl acetate in 50% ethanol, cells were dehydrated with series concentrations of ethanol (from 50% to 100%). After transitioning from propylene oxide to resin and embedding in Embed 812 resin (Electron Microscopy Sciences), cells were located using light microscopy and trimmed out. 60-70 nm-thin sections were cut, mounted on formvar-coated grids, and viewed by a transmission electron microscope (Tecnai G2 spirit; FEI) equipped with a LaB6 source using a voltage of 120 kV.
# TNBC cells = assay: Global de novo protein synthesis (puromycin labeled nascent proteins), TNBC cells; format: cell-based, Human; settings: 1 μM
# Protocol: as §3
# [2] = test system: SUM-159 cells with LIPA KO; assay: CellTiter-Glo, SUM-159 LIPA KO cells; format: cell-based; settings: Homo sapiens, SUM159; SUM-159 stably transfected mCherry-RAMP4, CellTiter-Glo
# Protocol: as §1
# as §2, with “Since LIPA overexpression was introduced in LIPA CRISPR KO background, to avoid being targeted by CRISPR-cas9, the LIPA sgRNA target sequence including PAM, tt aac cga att cct cat ggg agg, was mutated to tt aac cga att cct caC ggA agA in all of the LIPA overexpression constructs without protein coding change. In-Fusion Cloning kit (Takara) was used to generate different mutants of LIPA.” left out
# [3] = Tolerability of daily dosing in mice (pilot MTD); format: in vivo; settings: daily oral or intraperitoneal, up to 100 mg/kg
# Protocol: Animal Studies: All animal experiments were performed using UTHSA and UTSW IACUC approved protocols. For cell based xenograft tumor assays, TNBC cells (2×10^5-2×10^6) were mixed with an equal volume of matrigel and implanted in the mammary fat pads of 6-week-old female athymic nude mice as described^33. BALB/c mice were used for D2A1 syngeneic model. Once tumors reached measurable size, mice were divided into control (vehicle) and ERX-41 (10 mg/kg/oral) treatment groups. Mice bearing TNBC PDX tumors were purchased from Jackson laboratory (TM00089; TM00096; TM00098). TNBC PDX line UTPDX0001 establishment was earlier described^38. WHIM-20 ER+PDX model was purchased from Horizon Labs. OCa-PDX-38 was received from UTHSA ObGyn tissue procurement core. When tumors reached ˜750 mm^3 they were dissected into 2 mm^3 pieces and implanted into the mammary fat pads of 6 weeks old female SCID or NSG mice. When the tumor volume reached ˜200 mm^3, mice were randomized for treatment. The mice were monitored daily for adverse toxic effects and tumor volume was measured every 3-4 days using calipers. For establishing ES2 tumors, ES2/GFP/LUC cells were injected i.p. and tumors were measured twice a week using Xenogen in vivo imaging system. […] The mice were monitored daily for adverse toxic effects. […] The sections were scored by two independent evaluators blinded to the patient's clinical status.
structure (smiles),measurement,setting,value
CC(C)COc1cc(C(=O)Nc2ccc(C(=O)N[C@H]3CC[C@H](C)CC3)cc2OCC(C)C)ccc1NC(=O)c1ccc([N+](=O)[O-])c(OCCO)c1 [ERX-41],responsiveness with mouse LXXLL sequence or mouse LIPA cDNA,[1]; ER stress and cell death,restore responsiveness
same,IC50,"[1]; Homo sapiens, SUM159, SUM-159 LIPA-KO + WT-LIPA, read-out: IC50 after reconstitution of WT-LIPA (KO+WT)",250 nM
same,proliferation and ER stress with LXXLL point mutants,"[1]; KO+L242P, KO+L239P/L242P, KO+L239P/L242P/L243P",inability of ERX-41 to affect proliferation or induce ER stress
same,sensitivity after reconstitution of ΔLXXLL MT-LIPA (KO+ΔLXXLL),[1]; lipase-competent mutant,did not restore sensitivity to ERX-41
same,sensitivity after reconstitution of H274Y MT-LIPA (KO+H274Y),[1]; lipase-incompetent mutant,restored sensitivity to ERX-41
same,ER stress and proliferation with LIPA with added KDEL sequence,[1]; localized to the ER,restores the ability of ERX-41 to cause ER stress
same,ER stress and proliferation with LIPA lacking the signal peptide,[1]; not localized to the ER,nor restore the ability of ERX-41 to cause ER stress
same,ER morphology by TEM,TNBC cells (MDA-MB-231),dramatic dilation of the ER
same,global de novo protein synthesis,TNBC cells,blocked; also recorded: blocks de novo protein synthesis
same,IC50,[2],~4000 nM
same,tolerability,[3],"well tolerated by mice, with no clear evidence of toxicity"
